Test results as given in patent publication US9987369B2, “Vitamin functionalized gel-forming block copolymers for biomedical applications” (INTERNATIONAL BUSINESS MACHINES CORPORATION, priority 2016, dated 2018).

Key:
C. albicans = assay: killing efficiency of solutions; format: cell-based, Candida albicans; details: solution, fluconazole at 5.0 mg/L
Description: A stock solution of cationic polymer VE/PrBr(1:15) (5 mg) in sterile HPLC grade water (10 mL) was prepared having a final concentration of 500 mg/L (500 ppm). A second stock solution of fluconazole (1 mg) in sterile HPLC grade water (100 mL) was prepared having a final concentration of 10 mg/L (10 ppm). Three solutions were prepared: (1) cationic polymer alone at 1.0MIC=250 mg/L (250 ppm) against C. albicans, (2) A cationic polymer/fluconazole solution containing VE/PrBr(1:15) at 0.5MIC=125 mg/L (125 ppm) against C. albicans and fluconazole at 2.5 mg/L (2.5 ppm), and (3) fluconazole alone at 5.0 mg/L (5 ppm). Formulation (2) was obtained by combining […] each of the stock solutions of cationic polymer and fluconazole and diluting the resulting solution with 750 microliters of sterile HPLC grade water.

P. aeruginosa = assay: killing efficiency / minimum bactericidal concentration; format: cell-based, Pseudomonas aeruginosa; details: single agent
Description: Procedure for hydrogels: E. coli, P. aeruginosa, S. aureus and C. albicans were obtained from ATCC and reconstituted from its lyophilized form according to the manufacturer's protocol. Bacterial samples were cultured in Tryptic Soy Broth (TSB) solution at 37° C. under constant shaking of 300 rpm. C. albicans was culture in yeast medium at room temperature under constant shaking of 70 rpm. Prior to treatment, the bacterial sample was first inoculated and cultured to enter into log growth phase. To prepare the antimicrobial hydrogels, cationic polymer was first dissolved in filtered HPLC water in a bio-hood. […] For instance, cationic polymer VE/BnCl(1:30) or cationic polymer VE/PrBr(1:30) was dissolved by using sterile HPLC grade water to form a polymer solution at various concentrations. This solution was then used to dissolve […]1.25 to form a 4 wt. % hydrogel containing various concentrations of the cationic polymers. […] The concentration of bacterial solution was adjusted to give an initial optical density (O.D.) reading of approximately 0.07 at 600 nm wavelength on a microplate reader (TECAN, Switzerland), which corresponds to the concentration of McFarland 1 solution (3×10^8 CFU/mL). […] The plates were incubated for 24 hours at 37° C. and the number of colony-forming units (CFU) was counted. […]

Molecule | killing efficiency against C. albicans (C. albicans) [%] | MBC against P. aeruginosa (P. aeruginosa) [µg/mL]
OC(Cn1cncn1)(Cn1cncn1)c1ccc(F)cc1F [fluconazole, Fluconazole] | 93.53 | –
Doxycycline [DXY] | – | 20 to 30
